Each block holds one compound with its values, some of them ahead of it.
Tested on: NCI-H510 multicellular tumor spheroid growth, % test/control
Assay: Anticancer human tumor NCI-H510 cell line growth inhibition [Asc];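 note: spheroids exposed to agents for 7 days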;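 for viability, T/C: 100% = DMSO vehicle control wells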
Conditions: for IC50: curve of first compound; for viability, T/C: stronger effect = lower value
Outline: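 Stromal components (HUVEC and hMSC) are co-assembled with the cancer cells into multicellular spheroids. Drugs are then added singly or paired, at concentrations falling by half-log increments from a clinically achievable maximum, capped at 10 microM without known Cmax.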

[1] = second compound 0.1 µM, first compound 0.00316 µM
[2] = second compound 0.1 µM, first compound 0.01 µM
[3] = second compound 0.1 µM, first compound 0.0316 µM
[4] = second compound 0.1 µM, first compound 0.1 µM
[5] = second compound 0.1 µM, first compound 0.316 µM
[6] = second compound 0.1 µM, first compound 1 µM
[7] = second compound 0.316 µM, first compound 0.00316 µM
[8] = second compound 0.316 µM, first compound 0.01 µM
[9] = second compound 0.316 µM, first compound 0.0316 µM
[10] = second compound 0.316 µM, first compound 0.1 µM
[11] = second compound 0.316 µM, first compound 0.316 µM
[12] = second compound 0.316 µM, first compound 1 µM
[13] = second compound 1 µM, first compound 0.00316 µM
[14] = second compound 1 µM, first compound 0.01 µM
[15] = second compound 1 µM, first compound 0.0316 µM
[16] = second compound 1 µM, first compound 0.1 µM
[17] = second compound 1 µM, first compound 0.316 µM
[18] = second compound 1 µM, first compound 1 µM
[19] = second compound 3.16 µM, first compound 0.00316 µM
[20] = second compound 3.16 µM, first compound 0.01 µM
[21] = second compound 3.16 µM, first compound 0.0316 µM
[22] = second compound 3.16 µM, first compound 0.1 µM
[23] = second compound 3.16 µM, first compound 0.316 µM
[24] = second compound 3.16 µM, first compound 1 µM
[25] = second compound 10 µM, first compound 0.00316 µM
[26] = second compound 10 µM, first compound 0.01 µM
[27] = second compound 10 µM, first compound 0.0316 µM
[28] = second compound 10 µM, first compound 0.1 µM
[29] = second compound 10 µM, first compound 0.316 µM
[30] = second compound 10 µM, first compound 1 µM

IC50 (second compound 0.1 µM): > 1000 nM
IC50 (second compound 0.316 µM): > 1000 nM
IC50 (second compound 1 µM): 651 nM
IC50 (second compound 3.16 µM): 640 nM
IC50 (second compound 10 µM): 408 nM
SMILES: CCN1CCN(Cc2ccc(Nc3ncc(F)c(-c4cc(F)c5nc(C)n(C(C)C)c5c4)n3)nc2)CC1 + Cc1c(S(C)(=O)=O)c(-c2cc(F)cc(N3CCN(c4ccc(NS(=O)(=O)c5ccc(NC(CCN6CCC(C(=O)OCCCP(=O)(O)O)CC6)CSc6ccccc6)c(S(=O)(=O)C(F)(F)F)c5)cc4)CC3)c2)c(-c2ccc(Cl)cc2)n1C(C)C
viability, T/C [1]: 112%
viability, T/C [2]: 91.2%
viability, T/C [3]: 98%
viability, T/C [4]: 75.1%
viability, T/C [5]: 86.1%
viability, T/C [6]: 103%
viability, T/C [7]: 104%
viability, T/C [8]: 94.8%
viability, T/C [9]: 102%
viability, T/C [10]: 108%
viability, T/C [11]: 88.3%
viability, T/C [12]: 87.8%
viability, T/C [13]: 98.4%
viability, T/C [14]: 90.7%
viability, T/C [15]: 76.2%
viability, T/C [16]: 74.3%
viability, T/C [17]: 74.9%
viability, T/C [18]: 38.2%
viability, T/C [19]: 69.6%
viability, T/C [20]: 93%
viability, T/C [21]: 107%
viability, T/C [22]: 112%
viability, T/C [23]: 61.2%
viability, T/C [24]: 42.9%
viability, T/C [25]: 104%
viability, T/C [26]: 102%
viability, T/C [27]: 78.2%
viability, T/C [28]: 90.4%
viability, T/C [29]: 56.9%
viability, T/C [30]: 18.8%

IC50 (second compound 0.1 µM): 8.46 nM
IC50 (second compound 0.316 µM): 9.32 nM
IC50 (second compound 1 µM): 4.76 nM
IC50 (second compound 3.16 µM): 6.9 nM
IC50 (second compound 10 µM): 5 nM
SMILES: Cn1ncnc1[C@H]1c2n[nH]c(=O)c3cc(F)cc(c23)N[C@@H]1c1ccc(F)cc1 + Cc1c(S(C)(=O)=O)c(-c2cc(F)cc(N3CCN(c4ccc(NS(=O)(=O)c5ccc(NC(CCN6CCC(C(=O)OCCCP(=O)(O)O)CC6)CSc6ccccc6)c(S(=O)(=O)C(F)(F)F)c5)cc4)CC3)c2)c(-c2ccc(Cl)cc2)n1C(C)C
viability, T/C (second compound 0.1 µM, first compound 0.000316 µM): 88%
viability, T/C (second compound 0.1 µM, first compound 0.001 µM): 101%
viability, T/C [1]: 58.5%
viability, T/C [2]: 58.2%
viability, T/C [3]: 9.67%
viability, T/C [4]: 7.11%
viability, T/C (second compound 0.316 µM, first compound 0.000316 µM): 106%
viability, T/C (second compound 0.316 µM, first compound 0.001 µM): 70.3%
viability, T/C [7]: 101%
viability, T/C [8]: 47.3%
viability, T/C [9]: 5.08%
viability, T/C [10]: 5.01%
viability, T/C (second compound 1 µM, first compound 0.000316 µM): 96.2%
viability, T/C (second compound 1 µM, first compound 0.001 µM): 91.8%
viability, T/C [13]: 68.7%
viability, T/C [14]: 16.2%
viability, T/C [15]: 2.54%
viability, T/C [16]: 2.95%
viability, T/C (second compound 3.16 µM, first compound 0.000316 µM): 96.9%
viability, T/C (second compound 3.16 µM, first compound 0.001 µM): 79.8%
viability, T/C [19]: 92.3%
viability, T/C [20]: 31.1%
viability, T/C [21]: 12.2%
viability, T/C [22]: 2.55%
viability, T/C (second compound 10 µM, first compound 0.000316 µM): 92.6%
viability, T/C (second compound 10 µM, first compound 0.001 µM): 88.9%
viability, T/C [25]: 81.9%
viability, T/C [26]: 1.81%
viability, T/C [27]: 1.16%
viability, T/C [28]: 1.64%

IC50 (second compound 0.1 µM): 1610 nM
IC50 (second compound 0.316 µM): 1520 nM
IC50 (second compound 1 µM): 1490 nM
IC50 (second compound 3.16 µM): 1160 nM
IC50 (second compound 10 µM): 1320 nM
SMILES: O=C(c1cc(Cc2n[nH]c(=O)c3ccccc23)ccc1F)N1CCN(C(=O)C2CC2)CC1 + Cc1c(S(C)(=O)=O)c(-c2cc(F)cc(N3CCN(c4ccc(NS(=O)(=O)c5ccc(NC(CCN6CCC(C(=O)OCCCP(=O)(O)O)CC6)CSc6ccccc6)c(S(=O)(=O)C(F)(F)F)c5)cc4)CC3)c2)c(-c2ccc(Cl)cc2)n1C(C)C
viability, T/C [3]: 94.8%
viability, T/C [4]: 101%
viability, T/C [5]: 107%
viability, T/C [6]: 74.1%
viability, T/C (second compound 0.1 µM, first compound 3.16 µM): 13.4%
viability, T/C (second compound 0.1 µM, first compound 10 µM): 18.7%
viability, T/C [9]: 124%
viability, T/C [10]: 89.1%
viability, T/C [11]: 106%
viability, T/C [12]: 73.5%
viability, T/C (second compound 0.316 µM, first compound 3.16 µM): 8.58%
viability, T/C (second compound 0.316 µM, first compound 10 µM): 3.25%
viability, T/C [15]: 94.8%
viability, T/C [16]: 112%
viability, T/C [17]: 93.2%
viability, T/C [18]: 69.5%
viability, T/C (second compound 1 µM, first compound 3.16 µM): 14.3%
viability, T/C (second compound 1 µM, first compound 10 µM): 3.96%
viability, T/C [21]: 111%
viability, T/C [22]: 121%
viability, T/C [23]: 87.1%
viability, T/C [24]: 63.3%
viability, T/C (second compound 3.16 µM, first compound 3.16 µM): 4.95%
viability, T/C (second compound 3.16 µM, first compound 10 µM): 3.34%
viability, T/C [27]: 81.6%
viability, T/C [28]: 94.5%
viability, T/C [29]: 81.5%
viability, T/C [30]: 65.2%
viability, T/C (second compound 10 µM, first compound 3.16 µM): 1.71%
viability, T/C (second compound 10 µM, first compound 10 µM): 1.74%

IC50 (second compound 0.1 µM): > 1000 nM
IC50 (second compound 0.316 µM): > 1000 nM
IC50 (second compound 1 µM): > 1000 nM
IC50 (second compound 3.16 µM): > 1000 nM
IC50 (second compound 10 µM): > 1000 nM
SMILES: O=C(c1ccc(F)c(F)c1Nc1ccc(I)cc1F)N1CC(O)([C@@H]2CCCCN2)C1 + Cc1c(S(C)(=O)=O)c(-c2cc(F)cc(N3CCN(c4ccc(NS(=O)(=O)c5ccc(NC(CCN6CCC(C(=O)OCCCP(=O)(O)O)CC6)CSc6ccccc6)c(S(=O)(=O)C(F)(F)F)c5)cc4)CC3)c2)c(-c2ccc(Cl)cc2)n1C(C)C
viability, T/C [1]: 113%
viability, T/C [2]: 107%
viability, T/C [3]: 115%
viability, T/C [4]: 96.9%
viability, T/C [5]: 90%
viability, T/C [6]: 87.4%
viability, T/C [7]: 124%
viability, T/C [8]: 104%
viability, T/C [9]: 113%
viability, T/C [10]: 88.7%
viability, T/C [11]: 58.7%
viability, T/C [12]: 83%
viability, T/C [13]: 99.7%
viability, T/C [14]: 115%
viability, T/C [15]: 126%
viability, T/C [16]: 89.8%
viability, T/C [17]: 86.9%
viability, T/C [18]: 91.7%
viability, T/C [19]: 107%
viability, T/C [20]: 88.1%
viability, T/C [21]: 108%
viability, T/C [22]: 104%
viability, T/C [23]: 81.3%
viability, T/C [24]: 81.4%
viability, T/C [25]: 74.7%
viability, T/C [26]: 105%
viability, T/C [27]: 96.1%
viability, T/C [28]: 105%
viability, T/C [29]: 78.3%
viability, T/C [30]: 64.3%
